The source made the active and inactive calls.
What was measured:
[1] = target: Transthyretin (Homo sapiens, UniProt P02766); assay: Luminescence-based cell-based high throughput dose response assay to identify activators of Transthyretin (TTR) transcription.; type: functional
[2] = target: T1, RNA-binding protein pos-1 (Caenorhabditis elegans, UniProt G5EF15); assay: inhibitors of POS-1/mex-3 RNA binding, dose response, biochemical, fluorescence polarization (AID 1964);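 further: purified POS-1 fused to maltose binding protein made in E. coli; potency of compounds blocking POS-1 binding to fluorescent RNA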
T1 sequence (G5EF15 whole entry): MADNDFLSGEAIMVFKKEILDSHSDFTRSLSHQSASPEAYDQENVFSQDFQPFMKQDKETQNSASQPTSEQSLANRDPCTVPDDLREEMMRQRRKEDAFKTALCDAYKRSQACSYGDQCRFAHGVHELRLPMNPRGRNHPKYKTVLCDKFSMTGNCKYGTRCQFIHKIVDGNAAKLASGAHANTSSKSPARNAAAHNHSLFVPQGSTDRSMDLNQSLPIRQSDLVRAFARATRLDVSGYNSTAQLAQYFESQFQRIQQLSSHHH

[3] = target: Genome polyprotein (dengue virus type 2, UniProt P29990); assay: Dengue-2 NS5 methyltransferase inhibitors, primary screen, biochemical, confirmation dose response (AID 588689); type: functional
Chain of Genome polyprotein (P29990 2492-3391 limits assumed): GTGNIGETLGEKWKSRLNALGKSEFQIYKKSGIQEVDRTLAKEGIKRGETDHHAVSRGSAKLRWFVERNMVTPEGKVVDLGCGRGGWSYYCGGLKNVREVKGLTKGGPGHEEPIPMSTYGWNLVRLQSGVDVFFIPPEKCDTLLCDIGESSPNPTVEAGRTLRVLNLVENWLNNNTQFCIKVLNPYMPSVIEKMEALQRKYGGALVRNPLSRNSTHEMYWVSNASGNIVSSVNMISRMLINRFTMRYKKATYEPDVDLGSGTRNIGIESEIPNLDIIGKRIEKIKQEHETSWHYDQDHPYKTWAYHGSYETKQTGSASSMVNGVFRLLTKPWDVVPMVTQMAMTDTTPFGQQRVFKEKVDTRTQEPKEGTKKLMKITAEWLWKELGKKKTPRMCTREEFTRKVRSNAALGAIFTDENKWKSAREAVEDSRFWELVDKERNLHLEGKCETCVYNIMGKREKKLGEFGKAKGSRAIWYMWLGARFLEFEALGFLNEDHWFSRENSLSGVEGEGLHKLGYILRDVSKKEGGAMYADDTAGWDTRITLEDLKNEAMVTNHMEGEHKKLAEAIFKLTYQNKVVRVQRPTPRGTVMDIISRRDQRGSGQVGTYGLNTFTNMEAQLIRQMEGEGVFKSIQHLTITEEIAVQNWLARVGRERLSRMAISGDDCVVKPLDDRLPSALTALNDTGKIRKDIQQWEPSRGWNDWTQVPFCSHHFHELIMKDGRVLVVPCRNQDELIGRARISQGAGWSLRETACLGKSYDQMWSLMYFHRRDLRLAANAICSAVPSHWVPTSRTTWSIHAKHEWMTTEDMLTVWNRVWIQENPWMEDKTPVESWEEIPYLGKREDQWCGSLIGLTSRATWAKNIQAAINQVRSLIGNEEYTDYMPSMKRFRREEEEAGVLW

[4] = target: T2, Zinc finger protein mex-5 (Caenorhabditis elegans, UniProt Q9XUB2); assay: MEX-5/TCR-2 RNA interaction inhibitors, dose response, biochemical, C. elegans, fluorescence polarization (AID 1960)
T2 sequence (Q9XUB2 whole entry): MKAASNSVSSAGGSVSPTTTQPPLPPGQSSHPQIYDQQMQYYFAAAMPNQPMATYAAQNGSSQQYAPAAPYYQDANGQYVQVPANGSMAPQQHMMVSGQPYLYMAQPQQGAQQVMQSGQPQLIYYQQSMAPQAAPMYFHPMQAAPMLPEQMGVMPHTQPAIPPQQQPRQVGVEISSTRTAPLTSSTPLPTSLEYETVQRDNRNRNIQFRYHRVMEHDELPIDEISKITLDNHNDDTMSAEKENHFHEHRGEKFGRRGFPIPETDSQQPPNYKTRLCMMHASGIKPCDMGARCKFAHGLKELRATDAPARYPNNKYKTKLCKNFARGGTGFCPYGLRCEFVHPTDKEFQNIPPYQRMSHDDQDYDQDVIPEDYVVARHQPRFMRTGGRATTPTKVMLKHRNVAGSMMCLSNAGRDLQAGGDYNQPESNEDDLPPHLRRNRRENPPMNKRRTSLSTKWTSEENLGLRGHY

[5] = target: Induced myeloid leukemia cell differentiation protein Mcl-1 (Homo sapiens, UniProt Q07820); type: functional
Chain of Induced myeloid leukemia cell differentiation protein Mcl-1 (Q07820 whole entry): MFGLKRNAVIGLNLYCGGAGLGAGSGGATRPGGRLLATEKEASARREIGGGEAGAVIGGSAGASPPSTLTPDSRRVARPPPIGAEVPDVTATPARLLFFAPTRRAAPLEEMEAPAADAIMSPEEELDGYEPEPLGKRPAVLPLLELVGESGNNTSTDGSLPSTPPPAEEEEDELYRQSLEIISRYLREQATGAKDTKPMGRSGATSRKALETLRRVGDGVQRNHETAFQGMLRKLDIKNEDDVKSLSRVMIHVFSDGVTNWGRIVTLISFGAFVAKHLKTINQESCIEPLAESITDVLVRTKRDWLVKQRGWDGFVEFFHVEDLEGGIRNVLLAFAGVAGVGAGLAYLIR

[6] = target: Bifunctional protein GlmU (Mycobacterium tuberculosis, UniProt P9WMN3); assay: Inhibitors of Mycobacterial Glucosamine-1-phosphate acetyl transferase (GlmU). Secondary screen.; set-up: species or system Mycobacterium tuberculosis H37Rv
Chain of Bifunctional protein GlmU (P9WMN3 whole entry): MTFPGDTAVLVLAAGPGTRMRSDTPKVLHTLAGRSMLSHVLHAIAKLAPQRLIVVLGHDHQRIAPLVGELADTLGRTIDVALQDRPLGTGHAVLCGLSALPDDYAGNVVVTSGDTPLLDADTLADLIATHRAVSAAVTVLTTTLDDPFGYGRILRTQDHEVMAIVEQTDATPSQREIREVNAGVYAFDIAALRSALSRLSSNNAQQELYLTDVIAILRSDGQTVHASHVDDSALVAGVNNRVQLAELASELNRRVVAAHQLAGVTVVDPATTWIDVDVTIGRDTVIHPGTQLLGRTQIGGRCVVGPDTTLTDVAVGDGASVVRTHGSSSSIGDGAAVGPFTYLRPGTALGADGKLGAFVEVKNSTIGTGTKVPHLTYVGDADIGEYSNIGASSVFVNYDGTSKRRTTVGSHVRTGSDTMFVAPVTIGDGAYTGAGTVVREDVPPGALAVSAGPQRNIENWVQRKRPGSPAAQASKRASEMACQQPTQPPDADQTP

[7] = target: T3, Caspase-6 (Homo sapiens, UniProt P55212); assay: human caspase-6 inhibitors, dose response, biochemical, VEID-R110 fluorescence, cherry-pick (AID 720632)
T3 sequence (P55212 whole entry): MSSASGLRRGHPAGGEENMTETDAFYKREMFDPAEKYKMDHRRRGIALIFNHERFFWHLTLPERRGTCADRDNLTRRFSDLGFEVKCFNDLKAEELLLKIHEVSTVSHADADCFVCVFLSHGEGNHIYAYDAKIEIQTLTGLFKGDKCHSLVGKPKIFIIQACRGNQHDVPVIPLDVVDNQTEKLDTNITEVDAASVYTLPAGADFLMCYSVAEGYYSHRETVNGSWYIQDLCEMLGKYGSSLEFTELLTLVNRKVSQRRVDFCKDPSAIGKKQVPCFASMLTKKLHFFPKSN

[8] = test system: Vero; assay: Vero cell cytotoxicity, cytotoxicity control for flavivirus capping enzyme inhibitors (AID 588742); type: functional; conditions: Chlorocebus sabaeus
[9] = inhibitors of Vif binding to APOBEC3G peptide, primary screen, biochemical, TR-FRET, GST-Vif 1-94, biotin-A3G peptide, dose response retest (AID 1117319); type: functional;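 further: TR-FRET signal of purified GST-Vif binding a biotinylated A3G peptide; inhibitors lower the FRET signal by blocking Vif and A3G binding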
[10] = target: Prothrombin (Homo sapiens, UniProt P00734); assay: Thrombin 1536 HTS Dose Response Confirmation. [Related pubchem assays: 1046 (Thrombin 1536 HTS; hits were confirmed in this assay)]; type: functional
[11] = Jurkat T cell cytotoxicity, dose response, cytotoxicity control for P. falciparum gametocyte viability project, luminescence (AID 1117277); type: functional, cell-based;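 further: potency reflects loss of cellular ATP meaning fewer viable cells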
[12] = P. falciparum late gametocyte killing, dose response, luminescence (AID 1117278); type: functional, cell-based;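 further: gametocytes exposed to compound for 24 hours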
[13] = target: Sphingosine 1-phosphate receptor 2 (Homo sapiens, UniProt O95136); assay: Dose Response Cell Based Assay for Antagonists of the S1P2 Receptor. [Related pubchem assays: 856, 736 ]; type: functional
Chain of Sphingosine 1-phosphate receptor 2 (O95136 whole entry): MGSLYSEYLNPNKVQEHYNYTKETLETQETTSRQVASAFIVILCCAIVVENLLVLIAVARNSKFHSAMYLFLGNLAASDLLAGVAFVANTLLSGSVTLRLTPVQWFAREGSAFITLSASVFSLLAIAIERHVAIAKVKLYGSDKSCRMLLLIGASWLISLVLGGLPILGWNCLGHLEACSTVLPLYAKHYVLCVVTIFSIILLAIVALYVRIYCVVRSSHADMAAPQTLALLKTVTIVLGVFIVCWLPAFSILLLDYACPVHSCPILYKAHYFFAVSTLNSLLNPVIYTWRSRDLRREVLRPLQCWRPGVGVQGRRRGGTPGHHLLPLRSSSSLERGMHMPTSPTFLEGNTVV

[14] = target: T4, Protein skinhead-1 (Caenorhabditis elegans, UniProt P34707); type: functional
T4 sequence (P34707 whole entry): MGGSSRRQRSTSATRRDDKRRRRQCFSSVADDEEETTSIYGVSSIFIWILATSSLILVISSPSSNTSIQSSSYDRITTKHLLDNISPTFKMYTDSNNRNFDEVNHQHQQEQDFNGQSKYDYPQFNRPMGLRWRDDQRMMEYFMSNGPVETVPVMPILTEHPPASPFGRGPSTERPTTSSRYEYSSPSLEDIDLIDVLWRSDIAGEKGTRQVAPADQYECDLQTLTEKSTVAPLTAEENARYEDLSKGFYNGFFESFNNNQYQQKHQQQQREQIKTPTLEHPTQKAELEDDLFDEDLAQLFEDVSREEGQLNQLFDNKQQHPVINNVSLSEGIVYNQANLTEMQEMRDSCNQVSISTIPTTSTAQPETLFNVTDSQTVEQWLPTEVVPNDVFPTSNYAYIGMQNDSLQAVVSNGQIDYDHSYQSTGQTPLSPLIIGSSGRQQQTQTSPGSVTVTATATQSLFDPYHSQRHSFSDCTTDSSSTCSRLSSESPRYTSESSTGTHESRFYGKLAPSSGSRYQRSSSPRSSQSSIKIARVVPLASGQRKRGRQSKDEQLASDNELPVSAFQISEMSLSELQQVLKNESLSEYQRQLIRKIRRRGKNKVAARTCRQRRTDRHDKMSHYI

[15] = target: Diphosphomevalonate decarboxylase (Streptococcus pneumoniae serotype 2 (strain D39 / NCTC 7466), UniProt Q9FD53); assay: S. pneumoniae DPM-DC inhibition retest, confirmation, biochemical, cuvette format, coupled NADH fluorescence (AID 1028); type: functional
Chain of Diphosphomevalonate decarboxylase (Q9FD53 whole entry): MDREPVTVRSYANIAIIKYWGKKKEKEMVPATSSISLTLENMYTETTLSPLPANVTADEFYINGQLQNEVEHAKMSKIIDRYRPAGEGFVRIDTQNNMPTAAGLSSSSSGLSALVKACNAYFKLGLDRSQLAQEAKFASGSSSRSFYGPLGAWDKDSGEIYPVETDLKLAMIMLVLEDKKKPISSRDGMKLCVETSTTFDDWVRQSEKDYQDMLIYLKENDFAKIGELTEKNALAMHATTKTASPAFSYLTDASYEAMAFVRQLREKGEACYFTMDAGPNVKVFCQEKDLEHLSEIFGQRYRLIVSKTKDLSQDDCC

[16] = target: E3 ubiquitin-protein ligase Mdm2 (Homo sapiens, UniProt Q00987); assay: enhancers of MDM2-luciferase reporter signal, concentration-effect titration, project on inhibitors of MDM2 ubiquitin ligase, cellular assay, luminescent readout, 384-well plate format (AID 1394); type: functional;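 further: MDM2 E3 inhibitors raise luminescence so EC50 is for signal enhancement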
Chain of E3 ubiquitin-protein ligase Mdm2 (Q00987 whole entry): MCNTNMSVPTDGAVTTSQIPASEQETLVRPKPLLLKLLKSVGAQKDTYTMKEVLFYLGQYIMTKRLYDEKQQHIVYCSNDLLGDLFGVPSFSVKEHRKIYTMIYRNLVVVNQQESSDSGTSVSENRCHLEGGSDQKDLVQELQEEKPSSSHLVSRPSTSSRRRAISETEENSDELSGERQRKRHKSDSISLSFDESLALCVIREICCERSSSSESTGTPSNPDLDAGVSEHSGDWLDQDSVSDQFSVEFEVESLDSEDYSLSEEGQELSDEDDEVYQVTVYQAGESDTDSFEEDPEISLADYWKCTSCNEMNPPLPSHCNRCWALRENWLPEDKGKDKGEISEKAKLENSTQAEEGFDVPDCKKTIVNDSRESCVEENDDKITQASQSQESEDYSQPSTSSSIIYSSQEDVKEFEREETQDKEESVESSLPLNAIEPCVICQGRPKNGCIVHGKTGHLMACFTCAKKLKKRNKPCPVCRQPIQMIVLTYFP

[17] = Vero cell cytotoxicity, dose response, cytotoxicity control for Vif-APOBEC3G degradation inhibitor project, Vero cells (AID 1117358); type: functional; conditions: Human immunodeficiency virus 1, Vero

Cc1c(NS(=O)(=O)c2ccc(NC3CCCC3)c([N+](=O)[O-])c2)c(=O)n(-c2ccccc2)n1C
EC50 [1]: > 167 µM (inactive)

O=c1ccc2[n+]([O-])c3ccc(O)cc3oc-2c1
EC50 [2]: > 300 µM (not active) | IC50 [3]: 1.61 µM (active) | EC50 [4]: 37.7 µM (active) | IC50 [5]: 10.1 µM (not active) | IC50 [6]: 59.4 µM (active) | AC50 [7]: 0.285 µM (active) | CC50 [8]: > 40 µM (active)

COc1cc(OC)cc(C(=O)NNC(=O)c2ccccc2Br)c1
IC50 [9]: > 100 µM (active) | IC50 [10]: > 50 µM (not active)

Cc1ccc(NC(=O)Cn2cccc2)c(C)c1
IC50 [11]: > 83.4 µM (inactive) | IC50 [12]: > 109 µM (inactive)

Cc1ccc(NC2=Nc3ccccc3N3C2=Nc2c(c(C)nn2-c2ccccc2)C3c2ccc(O)c(O)c2)cc1 (configuration not stated)
IC50 [13]: 4.5 µM (active) | IC50 [14]: > 100 µM (inactive)

CCCN(CCC)C(=O)c1cccc(-n2sc3ccccc3c2=O)c1
IC50 [15]: 18.1 µM (active)

COc1ccc(CCNC(=O)COC(=O)c2cnc(C)cn2)cc1OC
EC50 [16]: 0.17 µM (not active)

Cn1c(Cn2c(=O)sc3ccccc32)nnc1SCC(=O)NCc1ccc(F)cc1
CC50 [17]: > 40 µM (active)

Source: ChEMBL document CHEMBL1201862, “PubChem BioAssay data set” (2004)
